Measured values taken from publication PMC6222706, “Evaluation of the Antioxidant and Neuroprotectant Activities of New Asymmetrical 1,3-Diketones” (Molecules : A Journal of Synthetic Chemistry and Natural …, 2018).

Tests used:
SH-SY5Y cells [1] = assay: LDH release assay in H2O2-treated SH-SY5Y cells; format: cell-based, human; conditions: compound 5-50 µM for 24 h, then 200 µM H2O2 for 24 h
Procedure: Additionally, the protection effect of 6b and 7b on cell death induced by 200 µM H2O2 was determined by measuring the lactate dehydrogenase (LDH) release in cell culture medium.
SH-SY5Y 96-well plates at a density of 5 × 10^3 cells/well and grown in the incubator for 24 h. Cells were pretreated for 24 h with different compound concentrations (5, 10, 20, 30, 40, 50 µM) and then exposed to 200 µM H2O2 for 24 h. Then, the supernatant was used in the LDH assay and the absorbance measured at 490nm in a Varioskan microplate reader after 30 min, according to the manufacturer’s instructions (LDH Cytotoxicity Assay Kit, Pierce^TM, Thermo Fisher Scientific, Vantaa, Finland). LDH leakage was calculated as the percentage of the control group.

[2] = Iron chelation capacity (Fe^+2-ferrozine complex); format: biochemical; conditions: aqueous media; for Fe^2+ binding capacity: 50 µM compound; for Fe^2+ chelating capacity: 200 µM compound
Procedure: To decrease the level of free Fe^2+ that can reduce H2O2 to the ^•OH radical and produce other ROS, it is worth to evaluate the iron chelation capacity of new potential AOX compounds as potential new therapeutic agents against neurodegenerative diseases. […] In this assay ferrozine form complexes with Fe^+2 in a quantitative manner, and in the presence of chelating compounds this complex is disrupted.
The iron chelation capacity was determined according to the method of Dinis et al., using ferrous chloride instead of ferrous sulfate. In this method, ferrozine can form complexes with a ferrous ion in a quantitative way yielding a red color with maximum absorbance at 562 nm. In the presence of other iron chelators, a decoloration is observed due to the competition with ferrozine for the metal. The assay was carried out in a 96 well plate. Serial dilutions of test compound (0, 5, 10, 25, 50, 100, 150, 200 µM) were dispensed (180 µL) into each well and then 10 µL of FeCl2 1 mM were added (final FeCl2 concentration, […]). After shaking the plate for 1 min, 10 µL of Ferrozine 2 mM were added. The mixture was shaken thoroughly and left to stand for 20 min at room temperature. The absorbance was measured at 562 nm with a Varioskan microplate reader. […] The compound iron chelation activity was calculated as the percentage of inhibition of the Fe^+2-Ferrozine complex by the formula in Equation (3):%Inhibition = {(Ao − As)/Ao} × 100(3) where Ao is the absorbance of the control, and As is the absorbance in the presence of the test compound. EDTA was used as a positive control. All the experiments were performed three times by quadruplicate for each compound concentration.

SH-SY5Y cells [3] = assay: Mitochondrial membrane potential (JC-1, microplate reader) in SH-SY5Y cells under H2O2; format: cell-based, human; conditions: SH-SY5Y, compound at different concentrations for 24 h, then 200 µM H2O2 for 24 h, JC-1
Procedure: To know whether β-diketones 6b and 7b will protect the mitochondrial membrane from depolarization under oxidative stress conditions, MMP experiments were carried out with the cationic dye JC-1 (5,5′,6,6′-tetrachloro-1,1′,3,3′-tetraethylbenzimi-dazolylcarbocyanine iodide). JC-1 enters selectively into mitochondria and reversibly change color from red to green as the membrane potential decrease. In healthy cells, JC-1 forms red fluorescent J-aggregates while in apoptotic cells with low MMP, JC-1 remains as monomers with green fluorescence. The ratio of J-aggregates to J-monomers is an indication of healthy non-apoptotic cells.
The fluorescent dye 5,5′,6,6′-tetrachloro-1,1′,3,3′-tetraethylbenzimidazolylcarbocyanine iodide (JC-1) was used for measuring MMP [111]. A decrease in fluorescence intensity represents mitochondrial membrane depolarization. For fluorescence ratio detection under oxidative stress conditions, 96 well plates were seeded with 3 × 10^3 SH-SY5Y cells and after 24 h incubation they were treated with test compound and left out for 24 h. Then, cells were exposed to different H2O2 concentrations for 24 h. After the incubation period, cells were washed twice with Hanks buffer and then stained with 5 µM JC-1 in culture media in dark, in a CO2 incubator at 37 °C for 20 min. At the end of the dye incubation period, cells were washed three times with Hanks buffer and 200 µL of fresh buffer was added. Cells were analyzed with a Varioskan microplate reader. J-aggregates red fluorescence intensity was measured at 535 nm excitation and 595 nm emission wavelength, while excitation at 485 nm and emission 535 nm wavelength was used for J-monomers green fluorescence. Results were expressed as the ratio of fluorescence intensity of J-aggregates to J-monomers. […] JC-1 aggregates show red fluorescence (peak emission at 590 nm) measured in the FL2 channel. Thus, healthy non-apoptotic cells are detected in both FL1 and FL2 channels, while cells with disrupted mitochondrial function show fluorescence in FL1 channel but reduced FL2 intensity.

SH-SY5Y cells [4] = assay: Intracellular ROS levels (DCFH2-DA) in SH-SY5Y cells under H2O2; format: cell-based, human
Procedure: Oxidative stress increases ROS levels, which may cause cell damage and death. Therefore, ROS production caused by H2O2 was evaluated in cells pretreated with or without derivatives 6b and 7b. In these studies, DFCH-DA method was used to measure by fluorescence the ROS intracellular levels, under two different compound treatment regimens. […] From both experiments, it could be concluded that 6b and 7b reduce intracellular ROS, and that longer treatment period seems to be needed to achieve a better ROS reduction.
Intracellular ROS levels were determined using dichlorofluorescein diacetate (DCFH2-DA) according to Wang et al.. DCFH2-DA is cleaved by intracellular esterases and oxidized by ROS to form the fluorescent compound DCF, which measure represents the ROS level. So, 3 × 10^3 SH-SY5Y cells were seeded in 96 well plates and after 24 h, treated with the test compound for an additional 24 h. […] After the incubation period, cells were washed twice with Hanks buffer and loaded with 20 µM DCFH2-DA (in FBS-free culture medium) for 40 min in dark at 37 °C in a CO2 incubator. At the end of the dye incubation period, they were washed twice with Hanks buffer to remove the extracellular DCFH2-DA. Fluorescence was measured with a Varioskan microplate reader at 485 nm excitation and 535 nm emission wavelength. Results are expressed as the percentage of fluorescent increase compared with that of the control. All the experiments were performed at least three times by quadruplicate for each compound concentration.

[5] = 6 h compound treatment followed by 2 h 500 µM H2O2
[6] = 24 h compound treatment prior to 400 µM H2O2 for 4 h

Row | SMILES | LDH leakage (SH-SY5Y cells [1]) | Fe^2+ binding capacity [2] | Fe^2+ chelating capacity [2] | MMP recovery (SH-SY5Y cells [3]) | Intracellular ROS level (SH-SY5Y cells [4]; [5]) | Intracellular ROS level (SH-SY5Y cells [4]; [6])
1 | O=C(/C=C(O)/C=C/c1ccc(O)c(F)c1F)C(F)(F)F [Compound 7b, (3Z,5E)-6-(2,3-Difluoro-4-hydroxyphenyl)-1,1,1-trifluoro-4-hydroxyhexa-3,5-dien-2-one] | reduced the LDH leakage | 7–8% | 25–26% | 18–25% | significant ROS level decrease | significant ROS level reduction
2 | O=C(/C=C(O)/C=C/c1cc(F)c(O)cc1F)C(F)(F)F [Compound 6b, (3Z,5E)-6-(2,5-difluoro-4-hydroxyphenyl)-1,1,1-trifluoro-4-hydroxyhexa-3,5-dien-2-one] | reduced the LDH leakage | 7–8% | 25–26% | 18–25% | significant ROS level decrease | significant ROS level reduction
